Measured values as given in PMC7318697 (2020).

Legend:
[1] = system: telo23 (DNA, G4) TAGGGTTAGGGTTAGGGTTAGGG; assay: UV/Vis titration; conditions: K+ (100 mM potassium phosphate), pH 7.4, ligand 10 μM; for K d: apparent, independent and equivalent sites
[2] = system: FmycT (DNA, G4) TTGAGGGTGGGTAGGGTGGGTAA; assay: FRET melting; conditions: 1 mM KCl, 99 mM LiCl; 10 mM Li cacodylate; ligand 5 μM; DNA 0.2 μM
[3] = system: Febr1T (DNA, G4) GGGCAGGGGGTGATGGGGAGGAGCCAGGG; assay: FRET melting; conditions: 10 mM KCl, 90 mM LiCl; 10 mM Li cacodylate; ligand 5 μM; DNA 0.2 μM
[4] = system: F21T (DNA, G4) GGGTTAGGGTTAGGGTTAGGG; assay: FRET melting; conditions: 10 mM Li cacodylate, ligand 5 μM, DNA 0.2 μM
[5] = system: F10T (DNA, hairpin, hexaethylene glycol (HEG) linker between nucleotides 10 and 11) TATAGCTATATATAGCTATA; assay: FRET melting; conditions: 10 mM KCl, 90 mM LiCl; 10 mM Li cacodylate; ligand 5 μM; DNA 0.2 μM
[6] = system: telo23 (DNA, G4) TAGGGTTAGGGTTAGGGTTAGGG; assay: 1H imino NMR titration; conditions: 20 mM potassium phosphate, 70 mM KCl; pH 7.0, 298 K, 90% H2O/10% D2O; DNA 185 μM

| K d [1] [µM] | ΔT m [2] [°C] | ΔT m [3] [°C] | ΔT m ([4]; 10 mM KCl, 90 mM LiCl) [°C] | ΔT m ([4]; 100 mM NaCl) [°C] | ΔT m [5] [°C] | binding [6] | binding ([1]; Kd too weak for accurate determination) | SMILES |
| --- | --- | --- | --- | --- | --- | --- | --- | --- |
| 2 | 30 | 17 | 28 | 19 | 3 | yes |  | C[n+]1ccc(-c2ccc3c(c2)CC/C3=C2/CCc3cc(-c4cc[n+](C)cc4)ccc32)cc1 |
|  |  | 22 |  |  |  | yes |  | C[n+]1ccc(-c2ccc3c(c2)/C(=C2\CCc4ccc(-c5cc[n+](C)cc5)cc42)CC3)cc1 |
| 70 |  |  | 6 |  |  |  |  | CN1CCN(CCCNc2ccc3c(c2)/C(=C2\CCc4ccc(NCCCN5CCN(C)CC5)cc42)CC3)CC1 |
| 70 |  | 9 |  |  |  | yes |  | C[n+]1ccc(-c2ccc3c(c2)/C(=C2/CCc4ccc(-c5cc[n+](C)cc5)cc42)CC3)cc1 |
|  | 0 |  | 0 | 0 | 0 |  | weak | CN1CCN(CCCNc2ccc3c(c2)/C(=C2/CCc4ccc(NCCCN5CCN(C)CC5)cc42)CC3)CC1 |
